Measured values reported in ChEMBL document CHEMBL4387725, “In vitro inhibitory effects of cirsiliol on IL-6-induced STAT3 activation through anti-inflammatory activity” (Bioorg Med Chem Lett, 2019).
Activity calls are given as the source filed them. No cut-off for these calls is given here.

Experiments:
[1] = biological target: Signal transducer and activator of transcription 3 (Homo sapiens) (UniProt P40763); assay: Inhibition of IL-6-induced pSTAT3 nuclear translocation in human U266 cells at 20 uM pre-incubated for 1 hr before IL-6 stimulation for 30 mins by DAPI staining based immunofluorescence microscopy; format: cell-based
Signal transducer and activator of transcription 3 (Homo sapiens), sequence (P40763 whole entry): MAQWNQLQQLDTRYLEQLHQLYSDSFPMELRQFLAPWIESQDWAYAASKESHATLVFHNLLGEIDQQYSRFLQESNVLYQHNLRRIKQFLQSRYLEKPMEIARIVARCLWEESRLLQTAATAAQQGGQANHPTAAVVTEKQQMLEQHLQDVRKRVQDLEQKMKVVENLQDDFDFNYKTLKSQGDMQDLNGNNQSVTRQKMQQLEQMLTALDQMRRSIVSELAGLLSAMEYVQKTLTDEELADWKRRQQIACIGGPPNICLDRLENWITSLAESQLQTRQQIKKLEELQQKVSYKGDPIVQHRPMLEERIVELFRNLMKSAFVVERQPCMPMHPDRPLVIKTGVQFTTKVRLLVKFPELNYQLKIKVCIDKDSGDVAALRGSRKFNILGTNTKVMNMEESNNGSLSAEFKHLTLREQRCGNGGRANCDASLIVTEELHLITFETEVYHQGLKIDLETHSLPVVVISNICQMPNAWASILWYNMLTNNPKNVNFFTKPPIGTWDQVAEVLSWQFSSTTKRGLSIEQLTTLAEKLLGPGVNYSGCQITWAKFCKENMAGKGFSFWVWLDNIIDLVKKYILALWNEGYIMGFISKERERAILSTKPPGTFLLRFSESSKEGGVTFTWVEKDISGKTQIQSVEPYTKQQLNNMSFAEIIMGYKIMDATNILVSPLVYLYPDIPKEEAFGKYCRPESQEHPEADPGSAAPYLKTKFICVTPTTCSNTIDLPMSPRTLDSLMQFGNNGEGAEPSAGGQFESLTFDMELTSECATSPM

[2] = biological target: T1, Interleukin-6 receptor subunit beta (Homo sapiens) (UniProt P40189); assay: Inhibition of IL-6-induced gp130 phosphorylation in human U266 cells at 10 and 20 uM pre-incubated for 1 hr before IL-6 stimulation for 10 to 15 mins by Western blot analysis; format: cell-based
T1 sequence (whole entry): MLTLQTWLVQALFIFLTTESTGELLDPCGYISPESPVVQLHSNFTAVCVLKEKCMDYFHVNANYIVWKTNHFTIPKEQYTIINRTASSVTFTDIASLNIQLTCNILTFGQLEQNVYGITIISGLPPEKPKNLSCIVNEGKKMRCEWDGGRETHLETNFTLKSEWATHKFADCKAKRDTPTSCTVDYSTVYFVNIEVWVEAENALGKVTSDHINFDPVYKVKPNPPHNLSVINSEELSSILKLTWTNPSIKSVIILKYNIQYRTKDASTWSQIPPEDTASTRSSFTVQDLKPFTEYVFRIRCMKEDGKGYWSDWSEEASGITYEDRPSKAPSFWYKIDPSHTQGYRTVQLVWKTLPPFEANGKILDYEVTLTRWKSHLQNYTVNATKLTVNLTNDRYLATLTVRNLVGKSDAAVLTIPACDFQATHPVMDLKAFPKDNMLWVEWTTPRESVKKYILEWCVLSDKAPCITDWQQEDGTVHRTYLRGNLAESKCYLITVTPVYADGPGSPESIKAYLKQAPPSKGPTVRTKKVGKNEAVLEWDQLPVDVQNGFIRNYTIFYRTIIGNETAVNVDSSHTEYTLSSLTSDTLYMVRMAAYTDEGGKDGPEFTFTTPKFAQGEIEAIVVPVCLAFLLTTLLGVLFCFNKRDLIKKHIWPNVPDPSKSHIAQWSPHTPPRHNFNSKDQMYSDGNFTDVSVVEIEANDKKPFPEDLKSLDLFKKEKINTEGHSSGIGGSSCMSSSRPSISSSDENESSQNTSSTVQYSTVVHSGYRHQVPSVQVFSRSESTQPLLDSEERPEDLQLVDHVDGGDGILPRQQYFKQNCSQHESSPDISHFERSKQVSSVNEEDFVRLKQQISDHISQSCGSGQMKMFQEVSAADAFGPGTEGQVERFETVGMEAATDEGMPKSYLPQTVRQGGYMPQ

[3] = tested on: Hep 3B2; assay: Inhibition of IL-6-induced CRP gene expression in human Hep3B cells pre-incubated for 1 hr before IL-6 stimulation for 6 hrs by RT-PCR method; format: functional, cell-based
[4] = tested on: Hep 3B2; assay: Cytotoxicity against human Hep3B cells assessed as cell viability at 1 to 20 uM incubated for 24 hrs by MTT assay; format: cell-based; conditions: hep 3b2, 24 h
[5] = biological target: Signal transducer and activator of transcription 3 (Homo sapiens) (UniProt P40763); assay: Inhibition of IL6-induced STAT3 phosphorylation in human Hep3B cells incubated for 12 hrs in presence of IL6 by luciferase reporter gene assay; format: cell-based
[6] = tested on: Hep 3B2; assay: Inhibition of IL-6-induced IL-1beta gene expression in human Hep3B cells pre-incubated for 1 hr before IL-6 stimulation for 6 hrs by RT-PCR method; format: functional, cell-based
[7] = tested on: Hep 3B2; assay: Inhibition of IL-6-induced ICAM1 gene expression in human Hep3B cells pre-incubated for 1 hr before IL-6 stimulation for 6 hrs by RT-PCR method; format: functional, cell-based
[8] = biological target: Signal transducer and activator of transcription 3 (Homo sapiens) (UniProt P40763); assay: Inhibition of IL-6-induced pSTAT3 nuclear translocation in human Hep3B cells at 10 and 20 uM pre-incubated for 1 hr before IL-6 stimulation for 30 mins by DAPI staining based immunofluorescence microscopy; format: cell-based
[9] = biological target: Signal transducer and activator of transcription 3 (Homo sapiens) (UniProt P40763); assay: Inhibition of IL-6-induced STAT3 phosphorylation at Tyr 705 residue in human U266 cells at 10 to 20 uM pre-incubated for 1 hr before IL-6 stimulation for 15 mins by Western blot analysis; format: cell-based
[10] = biological target: Tyrosine-protein kinase JAK2 (Homo sapiens) (UniProt O60674); assay: Inhibition of IL-6-induced JAK2 phosphorylation at Tyr1007/1008 residues in human U266 cells at 10 and 20 uM pre-incubated for 1 hr before IL-6 stimulation for 10 to 15 mins by Western blot analysis; format: cell-based
Tyrosine-protein kinase JAK2 (Homo sapiens), sequence (O60674 whole entry): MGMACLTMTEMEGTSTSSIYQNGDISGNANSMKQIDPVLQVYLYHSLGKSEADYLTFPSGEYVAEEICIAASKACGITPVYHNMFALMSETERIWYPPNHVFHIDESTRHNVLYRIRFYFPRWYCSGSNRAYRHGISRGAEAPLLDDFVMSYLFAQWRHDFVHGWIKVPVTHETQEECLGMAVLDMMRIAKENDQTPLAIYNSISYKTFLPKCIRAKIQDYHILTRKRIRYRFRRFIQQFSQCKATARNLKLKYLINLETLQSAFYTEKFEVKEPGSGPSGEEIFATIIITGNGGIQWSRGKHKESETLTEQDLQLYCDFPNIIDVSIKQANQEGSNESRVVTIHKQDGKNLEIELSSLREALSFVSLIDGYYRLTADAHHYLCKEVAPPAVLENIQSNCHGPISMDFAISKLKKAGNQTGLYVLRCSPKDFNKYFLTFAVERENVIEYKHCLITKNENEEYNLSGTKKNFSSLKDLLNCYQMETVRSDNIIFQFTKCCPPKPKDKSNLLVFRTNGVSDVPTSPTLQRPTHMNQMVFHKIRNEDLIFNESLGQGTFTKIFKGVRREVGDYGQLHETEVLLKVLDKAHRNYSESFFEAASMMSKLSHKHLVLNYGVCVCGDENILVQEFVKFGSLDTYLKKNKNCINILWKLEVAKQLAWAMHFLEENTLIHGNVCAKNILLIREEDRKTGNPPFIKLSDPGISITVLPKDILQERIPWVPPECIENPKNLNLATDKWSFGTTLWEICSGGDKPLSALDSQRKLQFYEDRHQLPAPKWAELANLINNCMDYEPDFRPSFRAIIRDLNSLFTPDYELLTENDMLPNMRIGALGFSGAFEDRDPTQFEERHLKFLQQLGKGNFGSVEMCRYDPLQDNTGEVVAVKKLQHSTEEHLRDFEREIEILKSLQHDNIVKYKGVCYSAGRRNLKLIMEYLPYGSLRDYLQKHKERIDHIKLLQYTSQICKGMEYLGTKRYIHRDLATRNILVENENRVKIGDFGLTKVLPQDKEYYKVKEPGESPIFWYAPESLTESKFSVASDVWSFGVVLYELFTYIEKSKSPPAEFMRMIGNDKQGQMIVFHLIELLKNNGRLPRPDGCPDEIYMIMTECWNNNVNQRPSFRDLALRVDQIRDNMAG

[11] = tested on: Hep 3B2; assay: Inhibition of IL-6-induced SOCS3 gene expression in human Hep3B cells pre-incubated for 1 hr before IL-6 stimulation for 6 hrs by RT-PCR method; format: functional, cell-based
[12] = species: Homo sapiens; assay: Inhibition of IL-6 binding to human recombinant soluble IL-6R incubated for 2 hrs by solid phase ligand binding assay
[13] = species: Homo sapiens; assay: Inhibition of IL-6-induced ERK phosphorylation at Tyr202/204 residues in human U266 cells at 10 to 20 uM pre-incubated for 1 hr before IL-6 stimulation for 10 to 15 mins by Western blot analysis; format: cell-based

COc1cc2oc(-c3ccc(O)c(O)c3)cc(=O)c2c(O)c1OC [CIRSILIOL]
inhibition [1]: Active
inhibition [2]: Dose-dependent effect
inhibition [3]: Dose-dependent effect
Activity [4]: Non-Toxic
inhibition [5]: Dose-dependent effect
inhibition [6]: Dose-dependent effect
inhibition [7]: Dose-dependent effect
inhibition [8]: Active
inhibition [9]: Active
inhibition [10]: Dose-dependent effect
inhibition [11]: Dose-dependent effect
inhibition [12]: inactive
inhibition [13]: Active
